Data published in US20200253959A1, “COMPOUNDS AND PHARMACEUTICAL COMPOSITIONS THEREOF FOR USE IN THE TREATMENT OF FIBROTIC DISEASES” (Galapagos NV, priority 2017, published 2020).
Values joined by “and” are separate entries in the source; they are usually repeats but may differ in a detail not shown here. Equal entries are not always repeated.

Tests used:
[1] = system: subjects with IPF; assay: Clinical study in IPF subjects: pulmonary function by spirometry (FVC); assay type: in vivo, human
Description: The study is a randomized, double-blind, parallel group, placebo-controlled, multicenter study to evaluate the test compound in subjects with IPF.
At baseline, after the subject's eligibility for the study has been confirmed, subjects are randomized in a 3:1 ratio test compound (600 mg q.d.) : matching placebo administered for 12 weeks.
Subjects receive 600 mg of test compound (3 capsules of 200 mg) or placebo q.d. for 12 weeks administered in the morning.
Pulmonary function will be assessed through spirometry both performed at the study center (at screening, baseline, and thereafter post dose at the time points indicated in the study schedule and according to sequence of study assessments) and at home (at baseline and thereafter post dose; on a daily basis in the morning). Specific instructions on how to perform the spirometry at home are provided in a separate spirometry user manual.
The following parameters will be measured as part of the spirometry assessment: • FEV1 (L) and percent predicted FEV1 • FVC (L) and percent predicted FVC • FEV1/FVC ratio • Forced expiratory flow (FEF) between 25 and 75% of exhaled volume (FEF25-75)

[2] = system: LPA 18:2; assay: LPA 18:2 levels in blood samples of IPF subjects; assay type: in vivo, human; conditions: for LPA 18:2 % reduction: IPF patients, plasma
Description: (§1) Blood samples of 14 mL will be collected predose by venipuncture (or indwelling catheter for pharmacokinetic sampling days) in the arm at the time points indicated in the study flow chart and according to sequence of study assessments.
From the blood samples, the LPA 18:2 levels are determined using laboratory techniques.

[3] = Test compound plasma levels and PK parameters in IPF patients (LC-MS/MS, non-compartmental analysis); assay type: in vivo, human; conditions: for Compound I concentration: listed as Compound I
Description: The test compound plasma levels were determined by LC-MS/MS and PK parameters by non-compartmental analysis using Phoenix WinNonlin.

[4] = system: LPA 18:2; assay: Human plasma assay for the reduction of LPA 18:2; assay type: biochemical
[5] = Compound plasma concentration in healthy volunteers (PK/PD correlation in plasma); assay type: in vivo, human; conditions: listed as Compound I
Text: (§2) A first trial is a randomized, double-blind, placebo-controlled, single center study evaluating single ascending doses (SAD) and multiple ascending (MAD) doses of compound 1 in healthy male volunteers (see Van der Aar E M, 2016).

[6] = system: LPA C8:2; assay: Plasma LPA reduction in healthy volunteers (PK/PD correlation in plasma); assay type: in vivo, human
Text: as §2

[7] = system: surfactant protein A; assay: Biomarker analysis surfactant protein A in blood of IPF subjects; assay type: in vivo, human; conditions: following 12 weeks of treatment
Description: as §1
The following exploratory biomarkers are evaluated in blood samples: • KL-6/Muc1 • surfactant protein A and D • CCL18 • ATX • MMP1, MMP7 • markers of extracellular matrix (ECM) turnover (neoepitope assay)

[8] = system: subjects with IPF; assay: Functional respiratory imaging (FRI) from HRCT in IPF subjects; assay type: in vivo, human
Text: HRCT will be performed (post dose if applicable) at the time points indicated in the study chart (see 1.4 above) and according to sequence of study assessments. HRCT scans will be used to generate FRI measurements allowing for an evaluation of regional IPF disease manifestation and disease progression. In case the subject is on bronchodilators, he/she can use the bronchodilator after the spirometry but prior to HRCT for FRI parameters.
At each computed tomography (CT) assessment an inspiratory and an expiratory scan will be taken. During the baseline visit an additional scan of the upper airway will be taken. The inspiratory and an expiratory scan will expose the subject to a total radiation dose of approximately 4-5 mSv per visit, including the initial CT localizer radiograph (topogram scout). The upper airway scan will expose a subject to approximately 1 mSv. A radiation dose of approximately 2-2.5 mSv is equivalent to approximately 1 year of background radiation (based on the assumption of an average “effective dose” from natural background radiation is of 3.1 mSv per year in the US and 2.4 mSv per year in Europe. (USNRC, 2014; WNA, 2015)
All CT images will be imported into Mimics, a commercial, medical image processing software package (Materialise, Leuven, Belgium, Food and Drug Administration, K073468; CE certificate, BE 05/1191 CE01) for analysis. This software package converts the HRCT images into patient specific, 3-dimensional computer models of the lung lobes, the airway lumen and wall, and the vascular tree. The airway and vascular tree are evaluated at functional residual capacity (FRC) and total lung capacity (TLC) level and can be segmented down to bronchi/vessels with a diameter of around 1-2 mm. Beyond this point the HRCT resolution is insufficient to distinguish alveolar and intraluminal air, or blood vessel tissue and surrounding lung tissues. A typical airway model includes 5-10 generations, depending mainly on the disease state of the individual patient. Afterwards the airway lumen models will be processed further to obtain a model that is suitable for flow calculations.
The following FRI parameters based on low-dose inspiratory-expiratory multi-slice CT images and computational fluid dynamics flow simulations will be evaluated. • lobar volumes at FRC and TLC • airway volumes at FRC and TLC • airway resistance • internal lobar airflow distribution • low attenuation or emphysema score at TLC • blood vessel density or fibrosis score at TLC • airway wall thickness at TLC • air trapping at FRC • mass of deposited particles per defined airway section

CCc1nc2c(C)cc(N3CCN(CC(=O)N4CC(O)C4)CC3)cn2c1N(C)c1nc(-c2ccc(F)cc2)c(C#N)s1 [Compound 1]
FVC CFB ([1]; 600 mg q.d., Week 4, IPF subjects): +116 mL
FVC CFB ([1]; 600 mg q.d., Week 8, IPF subjects): +15 mL
FVC CFB ([1]; 600 mg q.d., Week 12, IPF subjects, mean from baseline, listed as Cpd I): +8 mL
FVC CFB ([1]; 600 mg q.d., Week 12, IPF subjects, mean from baseline, listed as compound according to Formula I): 8 mL
FVC CFB ([1]; Follow up (2 weeks after last administration of 600 mg q.d.)): -55 mL
LPA18:2 percentage reduction ([2]; 600 mg q.d., Week 4, positive value = reduction): 52.48%
LPA18:2 percentage reduction ([2]; 600 mg q.d., Week 12, positive value = reduction): 67.48%
LPA18:2 percentage reduction ([2]; Follow up visit, negative value = increase in LPA levels): −34.36%
LPA 18:2 % reduction ([2]; Week 4 - 0 h post-dose (second line so labelled, r10)): 88%
LPA 18:2 % reduction ([2]; Week 4 - 0 h post-dose): 52%
LPA 18:2 % reduction ([2]; Week 12 - 0 h post-dose): 68%
LPA 18:2 levels after stopping the administration (in words) ([2]; after stopping administration): levels returning to or above baseline levels
LPA 18:2 levels on administration (in words) ([2]; during administration, 600 mg q.d.): stable decrease in LPA 18:2 levels
Compound I concentration ([3]; Week 4 - 0 h post-dose (second line so labelled, r10), plasma): 6557 nM and 3860 ng/mL
Compound I concentration ([3]; Week 4 - 0 h post-dose, plasma): 1020 nM and 604 ng/mL
Compound I concentration ([3]; Week 12 - 0 h post-dose, plasma): 1698 nM and 1000 ng/mL
AUC ([3]; human, plasma, oral, week 4, 600 mg q.d., read-out: mean area under the plasma concentration time curve for the dosing interval of 24 hours (AUC0-τ)): 55600 ng·h/mL
Cmax ([3]; human, plasma, oral, week 4, 600 mg q.d., read-out: median maximum observed plasma concentration (Cmax)): 6060 ng/mL
Tmax ([3]; human, plasma, oral, week 4, 600 mg q.d., read-out: median tmax): 4 h
trough plasma concentration (Cτ) ([3]; week 4, 600 mg q.d.): 604 ng/mL
IC50 in human plasma assay for the reduction of LPA 18:2 [4]: 0.143 µg/mL
Compound I concentration ([5]; D 14 - 6 h post-dose): 6506 nM and 3830 ng/mL
Compound I concentration ([5]; D 14 - 24 h post-dose): 421 nM and 249 ng/mL
LPA C8:2 % reduction ([6]; D 14 - 6 h post-dose): 83%
LPA C8:2 % reduction ([6]; D 14 - 24 h post-dose): 66%
surfactant protein A in blood (in words) [7]: statistically significant increase
Specific airway resistance ([8]; Baseline, Compound 1 group): 0.11 kPa/sec
Specific airway volume ([8]; Baseline, Compound 1 group): 3.92 mL/L
Specific airway resistance ([8]; Week 12, 600 mg q.d.): 0.12 kPa/sec
Specific airway volume ([8]; Week 12, 600 mg q.d.): 3.80 mL/L
airway resistance (in words) ([8]; baseline vs Week 12): stabilization
airway volume (in words) ([8]; baseline vs Week 12): stabilization
